Reference: patent EP0408760B1, “NEW HYDROXYLAMINE DERIVATIVE” (FUJISAWA PHARMACEUTICAL CO., LTD., priority 1988, dated 1990)

System: D-Galactosamine-induced hepatitis in rats
Experiment: Effect of compound on D-Galactosamine-induced hepatitis in rats (serum GOT and GPT)
Format: in vivo
Settings: orally 3 hour before and after D-Galactosamine, blood 24 hours later, male Wistar rats
Experimental: Method : Effect of compound on D-Galactosamine-induced hepatitis in rats
Acute hepatitis was induced in male Wistar rats at 6 weeks of age by the intraperitoneal injection of 80 mg/ml D-Galactosamine in saline at the volume of 5 ml/kg. Blood samples were taken in rats under ether anaesthesia 24 hours later.
After centrifugation for the separation of sera, the levels of GOT and GPT were determined spectrophotometrically according to Biochemical Analyzer TBA-20R (Toshiba).
Compound was dissolved in polyethylene glycol 400, and administered orally 3 hour before and after the injection of D-Galactosamine.
The levels of serum GOT and GPT in group of animals were measured as described above, and the mean value of each group calculated, including normal rats without D-Galactosamine injection.
The effect of compound was expressed as the percentage Inhibition at serum GOT and GPT, taking activity of control serum as 0% Inhibtion and that of normal serum as 100% Inhibition.

CCNC(=O)N(O)CC1=Cc2cccc(Oc3ccccc3)c2CC1 [Test Compound (f), N-[(3,4-Dihydro-5-phenoxy-2-naphthyl)methyl]-N-hydroxy-N'-ethylurea]
Inhibition (%) serum GOT (dose 1 mg/kg): 38%
Inhibition (%) serum GPT (dose 1 mg/kg): 42%
Inhibition (%) serum GOT (dose 10 mg/kg): 40%
Inhibition (%) serum GPT (dose 10 mg/kg): 37%
Inhibition (%) serum GOT (dose 32 mg/kg): 67%
Inhibition (%) serum GPT (dose 32 mg/kg): 64%
